{"source": "the OligoGym collection", "settings_in_all_cases": "ASO", "key": {"[1]": {"target": "CHUK"}, "[2]": {"target": "PTPN11"}, "[3]": {"target": "WWP1"}, "[4]": {"target": "PRKACA"}}, "note": "These antisense oligonucleotides have a phosphorothioate backbone; sugars and methylation of C are not fully specified. Note: test concentration or dose not given here."}
{"sequence": "CTGAGGGTCCCAATTCAA", "values": [{"measurement": "remaining target (mRNA or protein) (fraction of control)", "setting": "[1]", "value": 0.88}]}
{"sequence": "CTGTGGTCTCAGCTAATTTG", "values": [{"measurement": "remaining target (mRNA or protein) (fraction of control)", "setting": "[2]", "value": 0.35}]}
{"sequence": "CTGTTGGAAGGAATCTTCAA", "values": [{"measurement": "remaining target (mRNA or protein) (fraction of control)", "setting": "[3]", "value": "≥ 1"}]}
{"sequence": "CTTAATTGCTATTTTGAG", "values": [{"measurement": "remaining target (mRNA or protein) (fraction of control)", "setting": "[1]", "value": "≥ 1"}]}
{"sequence": "CTTAGCTCTAGGCGACAA", "values": [{"measurement": "remaining target (mRNA or protein) (fraction of control)", "setting": "[1]", "value": 0.56}]}
{"sequence": "CTTCCTCATAGTCGTCAAAG", "values": [{"measurement": "remaining target (mRNA or protein) (fraction of control)", "setting": "[4]", "value": 0.68}]}
{"sequence": "CTTCTGCTTACAGCCCAA", "values": [{"measurement": "remaining target (mRNA or protein) (fraction of control)", "setting": "[1]", "value": 0.56}]}
{"sequence": "CTTCTGTTTGTCGAGGATCT", "values": [{"measurement": "remaining target (mRNA or protein) (fraction of control)", "setting": "[4]", "value": 0.49}]}
{"sequence": "CTTTGTTCCCACCCTGATGG", "values": [{"measurement": "remaining target (mRNA or protein) (fraction of control)", "setting": "[3]", "value": 0.98}]}
{"sequence": "GAAAGAACAAAATCTCCAGG", "values": [{"measurement": "remaining target (mRNA or protein) (fraction of control)", "setting": "[2]", "value": "≥ 1"}]}
{"sequence": "GAACATCTCCCCGCCGGGCA", "values": [{"measurement": "remaining target (mRNA or protein) (fraction of control)", "setting": "[4]", "value": 0.87}]}
{"sequence": "GAATTAGAGGTGTCAGGCTC", "values": [{"measurement": "remaining target (mRNA or protein) (fraction of control)", "setting": "[3]", "value": "≥ 1"}]}
{"sequence": "GAGACGGAGATGAAGGTGTG", "values": [{"measurement": "remaining target (mRNA or protein) (fraction of control)", "setting": "[3]", "value": "≥ 1"}]}
{"sequence": "GATCCACATAATAGGTTCTA", "values": [{"measurement": "remaining target (mRNA or protein) (fraction of control)", "setting": "[3]", "value": "≥ 1"}]}
{"sequence": "GCAGGCTCAGATGCGAGTGG", "values": [{"measurement": "remaining target (mRNA or protein) (fraction of control)", "setting": "[3]", "value": "≥ 1"}]}
{"sequence": "GCATAGCTCCCTGCAATTGG", "values": [{"measurement": "remaining target (mRNA or protein) (fraction of control)", "setting": "[3]", "value": "≥ 1"}]}
{"sequence": "GCGGCCCTTCACGCGCTTGG", "values": [{"measurement": "remaining target (mRNA or protein) (fraction of control)", "setting": "[4]", "value": "≥ 1"}]}
{"sequence": "GCGGCGGCGTTGCCCATCGC", "values": [{"measurement": "remaining target (mRNA or protein) (fraction of control)", "setting": "[4]", "value": 0.33}]}
{"sequence": "GCGGCGGGTGCTGGCTGCGG", "values": [{"measurement": "remaining target (mRNA or protein) (fraction of control)", "setting": "[4]", "value": 0.85}]}
{"sequence": "GCGTTGCCCATCGCGGCGGC", "values": [{"measurement": "remaining target (mRNA or protein) (fraction of control)", "setting": "[4]", "value": 0.36}]}
{"sequence": "GCTTCTCTTTAAAATGGATT", "values": [{"measurement": "remaining target (mRNA or protein) (fraction of control)", "setting": "[4]", "value": 0.84}]}
{"sequence": "GCTTGCAGGATGCGCTTTTC", "values": [{"measurement": "remaining target (mRNA or protein) (fraction of control)", "setting": "[4]", "value": 0.34}]}
{"sequence": "GGAGCAGCTGGTGTTTCTGT", "values": [{"measurement": "remaining target (mRNA or protein) (fraction of control)", "setting": "[4]", "value": 0.61}]}
{"sequence": "GGCAGGTTTTCTCATCTGAA", "values": [{"measurement": "remaining target (mRNA or protein) (fraction of control)", "setting": "[2]", "value": 0.84}]}
{"sequence": "GGCATGCCCCTAAAACTCAG", "values": [{"measurement": "remaining target (mRNA or protein) (fraction of control)", "setting": "[4]", "value": 0.55}]}
{"sequence": "GGCCCGCTCGGGACCGGACG", "values": [{"measurement": "remaining target (mRNA or protein) (fraction of control)", "setting": "[2]", "value": 0.75}]}
{"sequence": "GGCGGCGGCGGCGTTGCCCA", "values": [{"measurement": "remaining target (mRNA or protein) (fraction of control)", "setting": "[4]", "value": 0.51}]}
{"sequence": "GGCGGCGTTGCCCATCGCGG", "values": [{"measurement": "remaining target (mRNA or protein) (fraction of control)", "setting": "[4]", "value": 0.31}]}
{"sequence": "GTCATGTTCCTCCCGCCCTC", "values": [{"measurement": "remaining target (mRNA or protein) (fraction of control)", "setting": "[2]", "value": 0.24}]}
{"sequence": "GTTGCCCATCGCGGCGGCGG", "values": [{"measurement": "remaining target (mRNA or protein) (fraction of control)", "setting": "[4]", "value": 0.53}]}
{"sequence": "GTTGGTGCAAATGAGGATGA", "values": [{"measurement": "remaining target (mRNA or protein) (fraction of control)", "setting": "[3]", "value": 0.95}]}
{"sequence": "GTTGTCCTTGAAGGAGAACT", "values": [{"measurement": "remaining target (mRNA or protein) (fraction of control)", "setting": "[4]", "value": "≥ 1"}]}
{"sequence": "GTTGTTGTTCTGGTGTTATG", "values": [{"measurement": "remaining target (mRNA or protein) (fraction of control)", "setting": "[3]", "value": 0.95}]}
{"sequence": "TAAGCGCCTCCTCAAGTCAT", "values": [{"measurement": "remaining target (mRNA or protein) (fraction of control)", "setting": "[3]", "value": 0.86}]}
{"sequence": "TACAAGAAAACTACCATGTT", "values": [{"measurement": "remaining target (mRNA or protein) (fraction of control)", "setting": "[2]", "value": "≥ 1"}]}
{"sequence": "TAGATGAGATCCAGCGAGTG", "values": [{"measurement": "remaining target (mRNA or protein) (fraction of control)", "setting": "[4]", "value": 0.72}]}
{"sequence": "TAGTTTTCAAATATGTTTAC", "values": [{"measurement": "remaining target (mRNA or protein) (fraction of control)", "setting": "[4]", "value": "≥ 1"}]}
{"sequence": "TATGAAAGATGGTCTGGATT", "values": [{"measurement": "remaining target (mRNA or protein) (fraction of control)", "setting": "[3]", "value": 0.99}]}
{"sequence": "TATGATCAACAAAGTACCTT", "values": [{"measurement": "remaining target (mRNA or protein) (fraction of control)", "setting": "[3]", "value": "≥ 1"}]}
{"sequence": "TCAACCACATTGCAAGCCTT", "values": [{"measurement": "remaining target (mRNA or protein) (fraction of control)", "setting": "[2]", "value": 0.27}]}
{"sequence": "TCAGACACTACTGGAGTACC", "values": [{"measurement": "remaining target (mRNA or protein) (fraction of control)", "setting": "[3]", "value": 0.76}]}
{"sequence": "TCATCTGAAACTTTTCTGCT", "values": [{"measurement": "remaining target (mRNA or protein) (fraction of control)", "setting": "[2]", "value": 0.84}]}
{"sequence": "TCCACCATAGGATTCTTCTT", "values": [{"measurement": "remaining target (mRNA or protein) (fraction of control)", "setting": "[2]", "value": 0.43}]}
{"sequence": "TCCACTCGTCTGGTCCGCTA", "values": [{"measurement": "remaining target (mRNA or protein) (fraction of control)", "setting": "[2]", "value": 0.29}]}
{"sequence": "TCCCAGACTGCTGCCGTACA", "values": [{"measurement": "remaining target (mRNA or protein) (fraction of control)", "setting": "[3]", "value": 0.47}]}
{"sequence": "TCCCATTGCGAGGATCTTTG", "values": [{"measurement": "remaining target (mRNA or protein) (fraction of control)", "setting": "[3]", "value": "≥ 1"}]}
{"sequence": "TCCGCGATGTCATGTTCCTC", "values": [{"measurement": "remaining target (mRNA or protein) (fraction of control)", "setting": "[2]", "value": 0.26}]}
{"sequence": "TCCTTCAAGTCAGAGCTGAA", "values": [{"measurement": "remaining target (mRNA or protein) (fraction of control)", "setting": "[4]", "value": 0.56}]}
{"sequence": "TCGCGGCGGCGGCGGCCGGG", "values": [{"measurement": "remaining target (mRNA or protein) (fraction of control)", "setting": "[4]", "value": 0.81}]}
{"sequence": "TCTCCGCGATGTCATGTTCC", "values": [{"measurement": "remaining target (mRNA or protein) (fraction of control)", "setting": "[2]", "value": 0.43}]}
{"sequence": "TCTGCGAAGAAGGGCGGGTA", "values": [{"measurement": "remaining target (mRNA or protein) (fraction of control)", "setting": "[4]", "value": "≥ 1"}]}
{"sequence": "TGCAGGGATGCCCTCCCCAC", "values": [{"measurement": "remaining target (mRNA or protein) (fraction of control)", "setting": "[4]", "value": 0.35}]}
{"sequence": "TGCCCATCGCGGCGGCGGCG", "values": [{"measurement": "remaining target (mRNA or protein) (fraction of control)", "setting": "[4]", "value": 0.71}]}
{"sequence": "TGGCTCCCCAGCGGCTCCCC", "values": [{"measurement": "remaining target (mRNA or protein) (fraction of control)", "setting": "[4]", "value": 0.64}]}
{"sequence": "TGGCTGCGGCCGGCGGCCCG", "values": [{"measurement": "remaining target (mRNA or protein) (fraction of control)", "setting": "[4]", "value": 0.51}]}
{"sequence": "TGTCTTGATTTGGCTGCTTC", "values": [{"measurement": "remaining target (mRNA or protein) (fraction of control)", "setting": "[3]", "value": 0.91}]}
{"sequence": "TGTTCCTCCCGCCCTCCGGC", "values": [{"measurement": "remaining target (mRNA or protein) (fraction of control)", "setting": "[2]", "value": "≥ 1"}]}
{"sequence": "TGTTGTTATCTCTTATCCAG", "values": [{"measurement": "remaining target (mRNA or protein) (fraction of control)", "setting": "[3]", "value": 0.92}]}
{"sequence": "TTCAAAATTTCGGACAGATT", "values": [{"measurement": "remaining target (mRNA or protein) (fraction of control)", "setting": "[3]", "value": "≥ 1"}]}
{"sequence": "TTCCATGTAATACTGGACCA", "values": [{"measurement": "remaining target (mRNA or protein) (fraction of control)", "setting": "[2]", "value": 0.29}]}
{"sequence": "TTCTTCCCAAAAGCCTTGTT", "values": [{"measurement": "remaining target (mRNA or protein) (fraction of control)", "setting": "[2]", "value": 0.67}]}
{"sequence": "TTGATGTGGGTGACAGCTCC", "values": [{"measurement": "remaining target (mRNA or protein) (fraction of control)", "setting": "[2]", "value": 0.42}]}
{"sequence": "TTGCATTGATGTAATCTGAA", "values": [{"measurement": "remaining target (mRNA or protein) (fraction of control)", "setting": "[2]", "value": 0.98}]}
{"sequence": "TTGGCGCTTCGTTCATTTGC", "values": [{"measurement": "remaining target (mRNA or protein) (fraction of control)", "setting": "[4]", "value": 0.61}]}
{"sequence": "TTTAAATGGTTTCAAATTTT", "values": [{"measurement": "remaining target (mRNA or protein) (fraction of control)", "setting": "[2]", "value": "≥ 1"}]}
{"sequence": "TTTAGACTTGCCGTCATTGC", "values": [{"measurement": "remaining target (mRNA or protein) (fraction of control)", "setting": "[2]", "value": 0.32}]}
{"sequence": "TTTCTGAGGAAGTCAGTATT", "values": [{"measurement": "remaining target (mRNA or protein) (fraction of control)", "setting": "[3]", "value": "≥ 1"}]}
{"sequence": "TTTGTGTTATGATTCACAAA", "values": [{"measurement": "remaining target (mRNA or protein) (fraction of control)", "setting": "[3]", "value": 0.95}]}
